Experimental data taken from patent publication US7713960B2, “Inhibition of the Raf/Mek/P-Erk pathway for treating cancer” (University of South Florida, priority 2005, dated 2010).
Where a name gives a salt, the structure may show the parent alone.

Legend:
Assay type in all cases: cell-based, human
c-Raf-1 = assay: In vivo kinase assay, intact MDA-MB-231 cells treated, c-Raf-1; settings: 10 μM
Experimental: In Vitro Kinase Assays—MDA-MB-231 cells (2×10^6) were lysed for 30 minutes at 4° C. in RIPA-150 buffer (10 mM Tris pH 7.5, 150 mM NaCl, 10% glycerol, 5 mM EDTA, 1% Triton X-100, 0.1% SDS, 100 μM sodium orthovanadate, 1 μM aprotinin, 10 μM leupeptin, 10 μM antipain). Cell debris was pelleted at 13000 rpm for 15 minutes at 4° C. and the lysate was rocked overnight with 10 μg of either c-Raf or MEK antibodies (Santa Cruz Biotechnologies, Santa Cruz, Calif.). 25 μl of protein A/G PLUS agarose (Santa Cruz Biotechnology) was then added and rocked for 4 hours at 4° C. Samples were spun at 2000 rpm for 5 minutes to collect the agarose beads, which were then washed four times with lysis buffer. On the final wash each pellet was divided into 5. […]

Rap-1 = Rap-1 activation assay, ACHN cells
Experimental: The effect of B2AR stimulation on Rap1 was investigated using the following methods: A Rap-1 activation assay kit (Upstate, Temecula, Calif.) was used according to protocol to determine if stimulation of the B2AR by ARA-211, and subsequent downstream signaling resulting in inhibition of P-Erk 1/2, is mediated by activation of Rap-1 directly by the Rap-1 guanine nucleotide exchange factor Epac. […] Cells were incubated with drugs for 1 hour unless noted otherwise. Cells were then lysed, the positive control lysate was incubated with 10 mM EDTA and 100 μM GTPγS and incubated for 30 minutes to load GTP onto Rap-1. Lysates from all samples were then incubated with 25 μg GST-RalGDS-Rap-1 binding domain beads for 45 minutes, washed with assay buffer 3×, resuspended in 40 μl of 2×Laemmli sample buffer and boiled for 5 minutes. Samples were resolved by SDS-PAGE electrophoresis, transferred to nitrocellulose, blotted overnight with 1 μ/ml polyclonal anti-Rap-1, and visualized by chemiluminescence.

A-549 cells = assay: Anchorage-independent growth (soft agar assay), A-549; settings: n = 6
Experimental: Soft Agar Assay—Anchorage independent growth assays were performed as previously described (Lerner et al., 1997). Briefly, agar was diluted to 0.3% in propagation media containing 20,000 cells and either vehicle or ARA-211 and 1 ml of cell/agar mixture plated on top of 2 ml of a 0.6% layer of agar in medium alone. Cells were grown for three to four weeks at 37° C., 10% Co2 and were fed weekly with 100 μl per well of media/treatment. Quantification of colonies was done using a GS-700 scanning densitometer.

CC(C)(C)NCC(O)c1ccc(O)c(CO)n1 (stereo not shown) [ARA-211, 2-hydroxymethyl-3-hydroxy-6-(1-hydroxy-2-tert-butylaminoethyl) pyridine, dihydrochloride]
c-Raf-1 kinase activity, intact cells first treated (c-Raf-1): blocked
Rap-1 activation (GTP-loaded Rap-1) (Rap-1; 10 μM, 1 hour): activated Rap-1
Rap-1 activation after blocking PKA kinase activity (Rap-1; pre-treatment with 10 μM H89 (1 hr) followed by ARA-211): had no effect on the ability of ARA-211 to stimulate Rap-1 activation
Anchorage Independent Growth (% Inhibition) (A-549 cells): 0 (n = 6) %
